Assays:
GDM-1 cells = test: Combination with BCL2 inhibitor ABT-199 in AML cell lines, 4-day cell proliferation assay; format: cell-based; conditions: Homo sapiens, 96 h; GDM-1, treatment duration 4 Days; single agent or combination; read-out: Absolute IC50 (cell proliferation)
Method: (§1) On day 1, plate GDM-1 [ATCC®, maintained throughout in GDM-1 assay medium: RPMI-1640 medium/20% heat-inactivated FBS (GIBCO®)] and EOL-1 cells [ATCC®, maintained throughout in EOL-1 assay medium: RPMI-1640 medium/10% heat-inactivated FBS (GIBCO®)] at 4000 and 10000 cells/well (100 μL/well) respectively, in a 96-well assay plate (BD FALCON® 35-3219). Incubate the plates in a 37° C. incubator (5% CO2) for 18-24 hr. On day 2, prepare 2.0% DMSO with assay medium (as indicated above or RPMI-1640/20% heat-inactivated FBS and RPMI-1640/10% FBS for GDM-1 and EOL-1, respectively) and add 100 μL to columns 3-12 in a preparation plate. Prepare test compounds ABT-199 at 10 μM in 2% DMSO and PRMT5 inhibitor Example 1 at 25 μM in 2% DMSO and dispense into wells A2 and B2, respectively, followed by serial dilution (1:3, 10 points) to wells A11 and B11, respectively. For combinational treatment, serially dilute test compound examples at 1:2 in assay medium (as indicated above or RPMI-1640/20% heat-inactivated FBS and RPMI-1640/10% FBS for GDM-1 and EOL-1, respectively) in wells C2-C11 (0.1 μM) to H2-H11, then serially dilute test compound ABT-199 1:3 from C2-H2 (1.0 μM) to C11-H11. […] Incubate plates for 10-15 min at room temperature before reading. Measure luminescence using the PERKIN-ELMER® ENVISION® Multi-Label Reader. […]

EOL-1 cells = test: Combination with BCL2 inhibitor ABT-199 in AML cell lines, 7-day cell proliferation assay; format: cell-based; conditions: Homo sapiens, EOL1, 168 h; EOL-1, treatment duration 7 Days; single agent or combination; read-out: Absolute IC50 (cell proliferation)
Method: as §1

A375 (melanoma) cells = test: Xenograft tumor model, melanoma (A375); format: in vivo, mouse; conditions: 4-day-on and 3-day-off schedule for 26 days, oral gavage
Method: (§2) The purpose of this assay is to measure in a mouse model of cancer the reduction in tumor volume in response to test compound administration.
(§3) Grow A375 (melanoma) cells in DMEM/High glucose (HYCLONE™ cat. # SH30022) with 10% HI FBS (GIBCO® cat. #10082-147). Grow Will-2 (DLBCL) cells in RPMI 1640 with L-glutamine and 20% heat inactivated FBS. Grow Namalwa (Burkitt's lymphoma) cells (ATCC) in RPMI 1640 media supplemented with L-glutamine, 25 mM HEPES (GIBCO® 22400-089), 1 mM sodium pyruvate and 7.5% FBS. Grow Molt 4 cells in RPMI 1640 with L-glutamine, 25 mM HEPES [GIBCO 22400-089], 1 mM sodium pyruvate, and 10% FBS. Harvest cells and inject subcutaneously onto the rear flank of nude mice (A375: 5×10^6 cells/animal, mixed 1:1 with MATRIGEL®; Will-2; 1×10^7 cells/animal; Namalwa: 2×10^6 cells/animal; Molt 4: : 5×10^6 cells/animal, mixed 1:1 with MATRIGEL®). When tumors are established (approximately 200 mm^3, 7-21 days after implant), randomize animals, and group them into control and test groups. Formulate the test compound in 1% HEC/0.25% TWEEN®-80/0.05% Antifoam. Administer test compound and vehicles by oral gavage. Determine tumor response by tumor volume measurement (caliper) performed twice a week during the course of treatment and report as the percent inhibition of tumor volume versus the vehicle control group.

Will-2 (DLBCL) cells = test: Xenograft tumor model, DLBCL (WILL-2); format: in vivo, mouse; conditions: oral gavage
Method: as §2, §3

[1] = tested on: Namalwa (Burkitt's lymphoma) cells; test: Xenograft tumor model, lymphoma (Namalwa); format: in vivo, mouse; conditions: oral gavage
Method: as §2, §3

With Nc1ncnc2c1ccn2[C@@H]1O[C@H]([C@H](O)c2ccc(Cl)cc2)[C@@H](O)[C@H]1O [Example 1, (2R,3R,4S,5R)-2-(4-Aminopyrrolo[2,3-d]pyrimidin-7-yl)-5-[(R)-(4-chlorophenyl)-hydroxy-methyl]tetrahydrofuran-3,4-diol] the IC50 (GDM-1 cells) was 224 nM, the IC50 (EOL-1 cells) was 6 nM and the “percent inhibition of tumor volume versus vehicle” value (from here on “percent inhibition”) (A375 (melanoma) cells; 10 mg/kg QD) was 64%. The “percent inhibition” value (A375 (melanoma) cells; 15 mg/kg) was 71%, the tumor regression (Will-2 (DLBCL) cells; 2 mg/kg BID for 14 days) was 50% and the “percent inhibition” value (Will-2 (DLBCL) cells; 5 mg/kg QD for 14 days) was 74%. The “percent inhibition” value ([1]; 2 mg/kg BID for 14 days) was 74% and the “percent inhibition” value ([1]; 5 mg/kg QD for 14 days) was 61%.

Reference: patent US9840532B2, “5′-substituted nucleoside compounds” (Eli Lilly and Company, priority 2015, dated 2017)
